Earlier results in patent US20240065977A1, “MYDRIATIC AND ANTI-MUSCARINIC AGENT COMPOSITION FOR OPHTHALMIC USE” (SENTISS PHARMA PRIVATE LIMITED, priority 2020, published 2024).
Where two headings read alike, the source gives them in different places.

System: pupil

Row | Structure (SMILES) | Mydriasis Peak (Concentration 0.5%-3%) [min] | Mydriasis Recovery (Concentration 0.5%-3%) [days] | duration of action (pupillary dilatation) [days] | onset of action (pupillary dilatation) [min] | Mydriasis Peak (Concentration 2%-5%) [min] | Mydriasis Recovery (Concentration 2%-5%) [days]
1 | CN1[C@@H]2CC[C@H]1C[C@@H](OC(=O)C(CO)c1ccccc1)C2 (stereo partly drawn) [Atropine] | 30 to 40 | 7 to 12 | ≥ 7 | 40 | – | –
2 | CN1[C@@H]2CC[C@H]1C[C@@H](OC(=O)C(O)c1ccccc1)C2 (stereo partly drawn) [Homatropine] | – | – | – | – | 40 to 60 | 1 to 3
